± gives the expanded uncertainty stated by the source.
Assay: molar heat capacity at constant pressure
Conditions: 101.33 kPa, Small (less than 1 g) adiabatic calorimetry

O=P([O-])([O-])[O-].[Cs+].[Mg+2] [caesium-magnesium monophosphate]
molar heat capacity at constant pressure [J/K/mol]
Conditions	Crystal 1	Crystal 2
7.22 K	–	0.956 ± 0.03
7.3 K	–	0.981 ± 0.03
7.96 K	–	1.22 ± 0.04
8 K	–	1.24 ± 0.04
8.7 K	–	1.59 ± 0.05
9.4 K	–	1.98 ± 0.06
10.09 K	–	2.4 ± 0.05
10.42 K	–	2.67 ± 0.05
11.01 K	–	3.12 ± 0.056
11.69 K	–	3.64 ± 0.061
12.4 K	–	4.2 ± 0.067
13.07 K	–	4.7 ± 0.071
13.9 K	–	5.392 ± 0.077
14.63 K	–	6.03 ± 0.083
15.35 K	–	6.706 ± 0.09
16.06 K	–	7.41 ± 0.096
16.84 K	–	8.22 ± 0.1
17.45 K	–	8.872 ± 0.11
18.81 K	–	10.39 ± 0.12
19.49 K	–	11.15 ± 0.12
20.16 K	–	11.94 ± 0.13
21.16 K	–	13.14 ± 0.14
22.91 K	–	15.3 ± 0.16
25.31 K	–	18.18 ± 0.17
27.75 K	–	20.87 ± 0.18
30.21 K	–	23.48 ± 0.19
32.69 K	–	25.92 ± 0.21
35.16 K	–	28.27 ± 0.22
37.64 K	–	30.51 ± 0.23
40.12 K	–	32.64 ± 0.21
42.6 K	–	34.69 ± 0.22
45.08 K	–	36.64 ± 0.22
47.57 K	–	38.55 ± 0.22
52.52 K	–	41.99 ± 0.24
54.99 K	–	43.63 ± 0.25
57.47 K	–	45.23 ± 0.25
59.95 K	–	46.77 ± 0.26
61.64 K	–	47.78 ± 0.27
63.99 K	–	49.13 ± 0.27
67.48 K	–	51.06 ± 0.27
71.15 K	–	53 ± 0.28
74.82 K	–	54.85 ± 0.29
78.48 K	–	56.63 ± 0.3
82.15 K	–	58.35 ± 0.31
82.7 K	–	58.61 ± 0.31
85.82 K	–	60.04 ± 0.31
85.9 K	–	60.06 ± 0.31
88.99 K	–	61.45 ± 0.32
89.49 K	–	61.67 ± 0.32
91.95 K	–	62.76 ± 0.35
94.91 K	–	64.05 ± 0.36
97.87 K	–	65.34 ± 0.36
100.82 K	–	66.59 ± 0.36
103.77 K	–	67.82 ± 0.37
106.72 K	–	69.04 ± 0.37
109.68 K	–	70.27 ± 0.37
112.63 K	–	71.51 ± 0.37
115.8 K	–	72.79 ± 0.38
118.91 K	–	74.06 ± 0.38
121.88 K	–	75.27 ± 0.39
124.84 K	–	76.48 ± 0.39
127.8 K	–	77.7 ± 0.4
130.76 K	–	78.9 ± 0.4
133.72 K	–	80.09 ± 0.4
136.69 K	–	81.3 ± 0.42
139.65 K	–	82.5 ± 0.42
142.62 K	–	83.64 ± 0.42
145.59 K	–	84.81 ± 0.42
148.56 K	–	85.97 ± 0.42
151.53 K	–	87.14 ± 0.42
154.5 K	–	88.22 ± 0.42
157.6 K	–	89.38 ± 0.42
160.43 K	–	90.46 ± 0.42
163.6 K	–	91.63 ± 0.42
166.37 K	–	92.62 ± 0.42
169.34 K	–	93.7 ± 0.42
172.31 K	–	94.79 ± 0.42
175.74 K	–	96.03 ± 0.5
178.73 K	–	97.11 ± 0.5
182.05 K	–	98.28 ± 0.5
185.19 K	–	99.36 ± 0.5
188.17 K	–	100.4 ± 0.5
191.4 K	–	101.5 ± 0.5
194.3 K	–	102.6 ± 0.5
197.16 K	–	103.5 ± 0.5
199.5 K	–	104.3 ± 0.5
200.16 K	–	104.6 ± 0.5
202.4 K	–	105.3 ± 0.5
202.86 K	–	105.5 ± 0.5
205.51 K	–	106.3 ± 0.5
205.98 K	–	106.6 ± 0.5
208.48 K	–	107.5 ± 0.5
208.94 K	–	107.8 ± 0.5
211.44 K	–	108.6 ± 0.5
211.9 K	–	108.9 ± 0.5
214.13 K	–	109.6 ± 0.5
214.59 K	–	109.9 ± 0.5
217.18 K	–	110.9 ± 0.5
217.64 K	–	111.2 ± 0.5
220.64 K	–	112.7 ± 0.5
221.1 K	–	113 ± 0.5
223.65 K	–	114.4 ± 0.5
224.11 K	–	114.9 ± 0.5
226.53 K	–	116.3 ± 0.5
226.99 K	–	116.9 ± 0.5
232.4 K	–	122.6 ± 0.58
232.75 K	–	123.1 ± 0.58
235.69 K	133.5 ± 0.58	129.2 ± 0.58
235.7 K	129.1 ± 0.58	–
237.89 K	126.1 ± 0.58	–
238.55 K	124.9 ± 0.58	–
240.77 K	121.7 ± 0.58	–
241.43 K	120.9 ± 0.58	–
243.77 K	118.8 ± 0.5	–
244.43 K	118.3 ± 0.5	–
246.72 K	116.9 ± 0.5	–
247.38 K	116.7 ± 0.5	–
249.24 K	115.8 ± 0.5	–
249.9 K	115.7 ± 0.5	–
250 K	112.2 ± 0.5	–
252.35 K	115.1 ± 0.5	–
253.01 K	114.9 ± 0.5	–
255.27 K	114.7 ± 0.5	–
255.8 K	114.7 ± 0.5	–
257.91 K	114.8 ± 0.5	–
258.57 K	114.8 ± 0.5	–
260 K	114.2 ± 0.5	–
260.67 K	115 ± 0.5	–
261.33 K	115.1 ± 0.5	–
263.41 K	115.3 ± 0.5	–
264.07 K	115.4 ± 0.5	–
266.23 K	115.7 ± 0.5	–
266.89 K	115.8 ± 0.5	–
268.97 K	116.1 ± 0.5	–
269.63 K	116.2 ± 0.5	–
270 K	116.3 ± 0.5	–
271.52 K	116.5 ± 0.5	–
272.18 K	116.7 ± 0.5	–
274.19 K	117.1 ± 0.5	–
274.85 K	117.2 ± 0.5	–
276.83 K	117.7 ± 0.5	–
277.49 K	117.8 ± 0.5	–
280 K	118.3 ± 0.5	–
280.12 K	118.3 ± 0.5	–
282.5 K	118.8 ± 0.5	–
285.44 K	119.4 ± 0.5	–
287.8 K	119.8 ± 0.5	–
289.7 K	120.3 ± 0.5	–
290 K	120.3 ± 0.5	–

Source: the NIST ThermoML archive (doi:10.1016/j.jct.2007.11.001)
